Series [1] relates to β-amyloid protein (Aβ) secreted by E35 cells (H4 cells with APP751 gene). In words: Screening system using E35 cells for inhibition of production/secretion of β-amyloid protein (sandwich ELISA of Aβ in culture medium). The conditions noted are these: Homo sapiens, 24 hours with compound, Aβ in culture supernatant by ELISA, read-out: Inhibitory Activity for Production of A(EC50). The series is classed as cell-based, human. How it is done: The activity of the compound inhibiting β-amyloid protein production was measured on E35 cells prepared by introducing APP751 gene, a gene of a human wild type β-amyloid protein precursor protein, to human glioma cells (H4 cells), by quantifying the amount of β-amyloid protein (Aβ) secreted to the culture medium by means of a sandwich type Enzyme-Linked Immunosorbent Assay (ELISA) method.
That is, E35 cells inoculated on a 96-well plate were cultured in an incubator at 37° C. which was maintained at equilibrium with 5% carbon dioxide, using Dulbecco's Modified Eagle's Medium containing inactivated 10% fetal bovine serum as the culture medium. After 24 hours from the inoculation, a test compound dissolved in a DMSO solution was added. The DMSO solution of the test compound was prepared at a concentration of 2000 times of the final concentration, such that the DMSO concentration in the culture medium would be 0.05%. After culturing for another 24 hours, the culture supernatant was recovered, and this was added to a 96-well plate for ELISA onto which a monoclonal antibody against Aβ, 25-1, was solid-phased. The plate was incubated at 4° C. for 16 to 20 hours. The plate was washed with phosphate buffer solution (pH 7.4), and then a biotinylated monoclonal antibody against Aβ, MA32-40, was added thereto. The plate was left to stand at 4° C. for 2 hours. The plate was washed again with phosphate buffer solution, and then alkaline phosphatase-conjugated streptavidin was added to conjugate streptavidin to biotin. Subsequently, the plate was washed with phosphate buffer solution. To this, Blue Phos (Kirkegaard & Perry Laboratories, Inc.) was added. After incubating the plate for an appropriate time, the reaction was terminated with an acid, and the absorbance for each well was measured. The amount of Aβ contained in the culture supernatant was determined from a calibration curve which was produced separately, and the amount was compared with that of control cells to which the compound was not added. Thus, the concentration at which 50% of the Aβ production is inhibited (EC50 value) was calculated. In addition, the 25-1 antibody and MA32-40 antibody used in ELISA were mouse monoclonal antibodies derived from the hybridoma cell clone lines, which were each produced and selected according to a standard method using Aβ25-35 and Aβ1-8 as antigens, respectively, and which specifically recognize their respective antigens. […]
The scores indicate ++++ for the case where EC50 was 5 nM or less; +++ for the case where EC50 was 5 to 50 nM; ++ for the case where EC50 was 50 to 500 nM; and + for the case where EC50 was 500 nM to 5 μM.
In general terms: ELISA stands for enzyme-linked immunosorbent assay.

As usually defined, the EC50 is the midpoint of the concentration-response curve. For orientation: melting point means the temperature of the solid-liquid transition. The compound `Cc1cc(C(=O)NCCO)ncc1C(c1cc(F)ccc1F)S(=O)(=O)c1ccc(F)cc1` (centres unmarked) [Example 17, 5-[(2,5-Difluorophenyl)[(4-fluorophenyl)sulfonyl]methyl]-N-(2-hydroxyethyl)-4-methylpyridine-2-carboxamide] had a melting point of 153 to 154 °C. Moreover, the EC50 in series [1] was at most 5 nM.

The compound `Cc1cc(C(N)=O)ncc1C(c1c(F)ccc(F)c1F)S(=O)(=O)c1ccc(C(F)(F)F)nc1` (centres unmarked) [Example 117, 4-Methyl-5-[[[6-(trifluoromethyl)pyridin-3-yl]sulfonyl](2,3,6-trifluorophenyl)methyl]pyridine-2-carboxamide] came in with a melting point of 237 to 238 °C. For the same compound, the EC50 in series [1] was at most 5 nM.

Turning to `CNC(=O)c1cc(C)c(C(c2cc(F)ccc2F)S(=O)(=O)c2ccc(Cl)cc2)cn1` (centres unmarked) [Example 4, 5-[[(4-Chlorophenyl)sulfonyl](2,5-difluorophenyl)methyl]-N,4-dimethylpyridine-2-carboxamide], the melting point is 200 to 201 °C. The EC50 in series [1] is at most 5 nM.

As to `Cc1cc(C(=O)NCCO)ncc1C(c1c(F)ccc(F)c1F)S(=O)(=O)c1ccc(F)cc1` (centres unmarked) [Example 94, 5-[[(4-Fluorophenyl)sulfonyl](2,3,6-trifluorophenyl)methyl]-N-(2-hydroxyethyl)-4-methylpyridine-2-carboxamide], the melting point fell in the range of 164 to 165 °C. In series [1], the EC50 was at most 5 nM.

`CCN(C)C(=O)c1cc(C)c(C(c2cc(F)ccc2F)S(=O)(=O)c2ccc(F)cc2)cn1` (centres unmarked) [Example 18, 5-[(2,5-Difluorophenyl)[(4-fluorophenyl)sulfonyl]methyl]-N-ethyl-N,4-dimethylpyridine-2-carboxamide] returned a melting point of 165 to 167 °C. Moreover, the EC50 in series [1] lay in the range of 50 to 500 nM.

With `Cc1cc(C(=O)N(C)C)ncc1C(c1cc(F)ccc1F)S(=O)(=O)c1ccc(F)cc1` (centres unmarked) [Example 14, 5-[(2,5-Difluorophenyl)[(4-fluorophenyl)sulfonyl]methyl]-N,N,4-trimethylpyridine-2-carboxamide], the melting point lay within 176 to 177 °C. Moreover, the EC50 in series [1] lay in the range of 50 to 500 nM.

Regarding `COc1ccc(S(=O)(=O)C(c2cnc(C(=O)NCCO)cc2C)c2cc(F)ccc2F)cc1` (centres unmarked) [Example 43, 5-[(2,5-Difluorophenyl)[(4-methoxyphenyl)sulfonyl]methyl]-N-(2-hydroxyethyl)-4-methylpyridine-2-carboxamide], the melting point lay within 134 to 135 °C. Besides, the EC50 in series [1] fell in the range of 5 to 50 nM.

For the compound `Cc1cc(C(=O)N(C)C)ncc1C(c1cc(F)ccc1F)S(=O)(=O)c1ccc(Cl)cc1` (centres unmarked) [Example 5, 5-[[(4-Chlorophenyl)sulfonyl](2,5-difluorophenyl)methyl]-N,N,4-trimethylpyridine-2-carboxamide], the melting point was 207 to 208 °C. Moreover, the EC50 in series [1] fell in the range of 50 to 500 nM.

Compound `Cc1cc(C(=O)NC(CO)CO)ncc1C(c1cc(F)ccc1F)S(=O)(=O)c1ccc(F)cc1` (centres unmarked) [Example 75, 5-[(2,5-Difluorophenyl)[(4-fluorophenyl)sulfonyl]methyl]-N-[2-hydroxy-1-(hydroxymethyl)ethyl]-4-methylpyridine-2-carboxamide] gave a melting point of 150 to 152 °C. Also, in series [1], the EC50 is at most 5 nM.

The compound `Cc1cc(C(=S)N(C)C)ncc1C(c1cc(F)ccc1F)S(=O)(=O)c1ccc(F)cc1` (centres unmarked) [Example 92, 5-[(2,5-Difluorophenyl)[(4-fluorophenyl)sulfonyl]methyl]-N,N,4-trimethylpyridine-2-carbothioamide] had a melting point of 161 to 164 °C.

Turning to `Cc1cc(C(=O)NCO)ncc1C(c1c(F)ccc(F)c1F)S(=O)(=O)c1ccc(Cl)cc1` (centres unmarked) [Example 120, 5-[[(4-Chlorophenyl)sulfonyl](2,3,6-trifluorophenyl)methyl]-N-(hydroxymethyl)-4-methylpyridine-2-carboxamide], the melting point is 177 to 178 °C. In addition, in series [1], the EC50 was at most 5 nM.

`COC(=O)NCCNC(=O)c1cc(C)c(C(c2cc(F)ccc2F)S(=O)(=O)c2ccc(F)cc2)cn1` (centres unmarked) [Example 84, Methyl[2-[[[5-[(2,5-difluorophenyl)[(4-fluorophenyl)sulfonyl]methyl]-4-methylpyridin-2-yl]carbonyl]amino]ethyl]carbamate] gave a melting point of 167 to 169 °C. In addition, the EC50 in series [1] is at most 5 nM.

For `Cc1cc(C(=O)NCO)ncc1C(c1c(F)ccc(F)c1F)S(=O)(=O)c1ccc(OC(F)(F)F)cc1` (centres unmarked) [Example 124, N-(hydroxymethyl)-4-methyl-5-[[[4-(trifluoromethoxy)phenyl]sulfonyl](2,3,6-trifluorophenyl)methyl]pyridine-2-carboxamide], the melting point fell in the range of 140 to 141 °C. The EC50 in series [1] is 5 to 50 nM.

The compound `CCOC(=O)c1cc(C)c(C(c2cc(F)ccc2F)S(=O)(=O)c2ccc(F)cc2)cn1` (centres unmarked) [Example 91, Diethyl 5-[(2,5-difluorophenyl)[(4-fluorophenyl)sulfonyl]methyl]-4-methylpyridine-2-carboxylic acid] gave a melting point of 151 to 153 °C.

`Cc1cc(C(=O)N2CCOCC2)ncc1C(c1cc(F)ccc1F)S(=O)(=O)c1ccc(F)cc1` (centres unmarked) [Example 77, 4-[[5-[(2,5-Difluorophenyl)[(4-fluorophenyl)sulfonyl]methyl]-4-methylpyridin-2-yl]carbonyl]morpholine] gave a melting point of 165 to 167 °C. In series [1], the EC50 was 500 to 5000 nM.

Regarding `Cc1cc(C(=O)O)ncc1C(c1cc(F)ccc1F)S(=O)(=O)c1ccc(Cl)cc1` (centres unmarked) [Example 3, 5-[[(4-Chlorophenyl)sulfonyl](2,5-difluorophenyl)methyl]-4-methylpyridine-2-carboxylic acid], the melting point was 208 to 209 °C.

Regarding `Cc1cc(C(=O)N2CC(O)C2)ncc1C(c1cc(F)ccc1F)S(=O)(=O)c1ccc(F)cc1` (centres unmarked) [Example 88, 1-[[5-[(2,5-Difluorophenyl)[(4-fluorophenyl)sulfonyl]methyl]-4-methylpyridin-2-yl]carbonyl]azetidin-3-ol], the melting point lay within 219 to 221 °C.

Compound `COc1ccc(S(=O)(=O)C(c2cnc(C(=O)O)cc2C)c2cc(F)ccc2F)cc1F` (centres unmarked) [Example 46, 5-[(2,5-Difluorophenyl)[(3-fluoro-4-methoxyphenyl)sulfonyl]methyl]-4-methylpyridine-2-carboxylic acid] returned a melting point of 196 to 197 °C.

Regarding `Cc1cc(C(=O)NCCC(=O)O)ncc1C(c1cc(F)ccc1F)S(=O)(=O)c1ccc(F)cc1` (stereo not drawn) [Example 81, N-[[5-[(2,5-difluorophenyl)[(4-fluorophenyl)sulfonyl]methyl]-4-methylpyridin-2-yl]carbonyl]-β-alanine], the melting point was 223 to 226 °C.

The compound `Cc1cc(C(N)=O)ncc1C(c1c(F)ccc(F)c1F)S(=O)(=O)c1ccc2ccoc2c1` (centres unmarked) [Example 126, 5-[(1-Benzofuran-6-ylsulfonyl)(2,3,6-trifluorophenyl)methyl]-4-methylpyridine-2-carboxamide] yielded a melting point of 237 to 240 °C.

With `Cc1cc(C(=O)NCS)ncc1C(c1cc(F)ccc1F)S(=O)(=O)c1ccc(F)cc1` (centres unmarked) [Example 132, 5-[(2,5-Difluorophenyl)[(4-fluorophenyl)sulfonyl]methyl]-N-(mercaptomethyl)-4-methylpyridine-2-carboxamide], the melting point fell in the range of 190 to 193 °C.

`Cc1cc(C(N)=O)ncc1C(c1c(F)ccc(F)c1F)S(=O)(=O)c1ccc(F)c(F)c1` (centres unmarked) [Example 121, 5-[[(3,4-Difluorophenyl)sulfonyl](2,3,6-trifluorophenyl)methyl]-4-methylpyridine-2-carboxamide] gave a melting point of 200 to 201 °C.

For the compound `Cc1cc(C(=O)NCOCc2cccnc2)ncc1C(c1cc(F)ccc1F)S(=O)(=O)c1ccc(F)cc1` (centres unmarked) [Example 113, 5-[(2,5-Difluorophenyl) [(4-fluorophenyl)sulfonyl]methyl]-4-methyl-N-[(pyridin-3-ylmethoxy)methyl]pyridine-2-carboxamide], the melting point was 121 to 123 °C.

`Cc1cc(C(=O)NCCO)ncc1C(c1cc(F)ccc1F)S(=O)(=O)c1cc(F)cc(F)c1` (centres unmarked) [Example 100, 5-[(2,5-Difluorophenyl)[(3,5-difluorophenyl)sulfonyl]methyl]-N-(2-hydroxyethyl)-4-methylpyridine-2-carboxamide] came in with a melting point of 82 to 84 °C.

`Cc1cc(C(=O)NCOC(=O)CO)ncc1C(c1cc(F)ccc1F)S(=O)(=O)c1ccc(F)cc1` (centres unmarked) [Example 109, [[[5-[(2,5-Difluorophenyl)[(4-fluorophenyl)sulfonyl]methyl]-4-methylpyridin-2-yl]carbonyl]amino]methyl hydroxyacetate]: the melting point came out at 84 °C.
